Source: ChEMBL document CHEMBL1156165, “Novel 8-(furan-2-yl)-3-substituted thiazolo [5,4-e][1,2,4] triazolo[1,5-c] pyrimidine-2(3H)-thione derivatives as potential adenosine A(2A) receptor antagonists” (Bioorg Med Chem, 2010)
pKi: −log10 of the molar value. Activity calls are given as the source filed them. The calls are words filed in the database; no cut-off is given here.

Experiments:
[1] = target: Adenosine receptor A2a (Homo sapiens, UniProt P29274); test: biochemical
Description: Displacement of [3H]ZM241385 from human adenosine A2A receptor expressed in HEK293 cells after 60 mins by rapid filtration assay

[2] = target: T1, Adenosine receptor A1 (Homo sapiens, UniProt P30542); test: biochemical
T1 sequence (P30542 whole entry): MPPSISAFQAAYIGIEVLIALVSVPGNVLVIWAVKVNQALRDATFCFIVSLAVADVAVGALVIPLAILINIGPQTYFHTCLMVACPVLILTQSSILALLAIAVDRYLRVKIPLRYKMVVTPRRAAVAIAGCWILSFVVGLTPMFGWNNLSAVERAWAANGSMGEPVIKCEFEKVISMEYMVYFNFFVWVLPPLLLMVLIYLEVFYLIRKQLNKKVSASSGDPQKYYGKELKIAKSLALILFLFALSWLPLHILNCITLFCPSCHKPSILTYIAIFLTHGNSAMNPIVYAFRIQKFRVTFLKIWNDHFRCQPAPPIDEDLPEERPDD
Description: Displacement of [3H]DPCPX from human adenosine A1 receptor expressed in HEK293 cells after 60 mins by rapid filtration assay

[3] = species on record: Homo sapiens; test: Selectivity ratio of Ki for human adenosine A1 receptor to Ki for human adenosine A2A receptor
[4] = tested on: Mus musculus; test: Inhibition of haloperidol-induced akinesia in Swiss albino mouse at 20 mg/kg, ip administered 30 mins prior to haloperidol challenge measured after 15 to 120 mins; format: functional, organism-based; parameters: dose 20 mg/kg
[5] = tested on: Mus musculus; test: Inhibition of haloperidol-induced catalepsy in Swiss albino mouse at 20 mg/kg, ip administered 30 mins prior to haloperidol challenge measured after 15 to 120 mins; format: functional, organism-based; parameters: dose 20 mg/kg
[6] = tested on: Mus musculus; test: Inhibition of haloperidol-induced catalepsy in Swiss albino mouse at 5 mg/kg, ip administered 30 mins prior to haloperidol challenge measured after 15 to 120 mins; format: functional, organism-based; parameters: dose 5 mg/kg
[7] = tested on: Mus musculus; test: Inhibition of haloperidol-induced catalepsy in Swiss albino mouse at 10 mg/kg, ip administered 30 mins prior to haloperidol challenge measured after 15 to 120 mins; format: functional, organism-based; parameters: dose 10 mg/kg
[8] = tested on: Mus musculus; test: Inhibition of haloperidol-induced akinesia in Swiss albino mouse at 10 mg/kg, ip administered 30 mins prior to haloperidol challenge measured after 15 to 120 mins; format: functional, organism-based; parameters: dose 10 mg/kg
[9] = tested on: Mus musculus; test: Inhibition of haloperidol-induced akinesia in Swiss albino mouse at 5 mg/kg, ip administered 30 mins prior to haloperidol challenge measured after 15 to 120 mins; format: functional, organism-based; parameters: dose 5 mg/kg

Chain of Adenosine receptor A2a (P29274 whole entry): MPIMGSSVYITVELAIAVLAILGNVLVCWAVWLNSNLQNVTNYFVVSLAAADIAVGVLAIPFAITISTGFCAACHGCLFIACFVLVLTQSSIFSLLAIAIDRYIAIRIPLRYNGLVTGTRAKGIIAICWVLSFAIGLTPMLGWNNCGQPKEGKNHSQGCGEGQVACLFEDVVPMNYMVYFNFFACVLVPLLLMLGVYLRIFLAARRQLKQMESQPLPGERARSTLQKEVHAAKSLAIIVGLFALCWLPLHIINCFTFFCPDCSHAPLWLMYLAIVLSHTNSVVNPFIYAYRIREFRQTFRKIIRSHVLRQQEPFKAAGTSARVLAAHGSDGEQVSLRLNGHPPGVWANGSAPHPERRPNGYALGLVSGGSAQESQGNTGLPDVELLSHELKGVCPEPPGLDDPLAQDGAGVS

Structure (SMILES)	pKi [1]	pKi [2]	Ratio Ki [3]	inhibition [4]	inhibition [5]	inhibition [6]	inhibition [7]	inhibition [8]	inhibition [9]
C=CCn1c(=S)sc2c1ncn1nc(-c3ccco3)nc21	10.80	7.72	1250	Active	Active	Active	Active	Active	Active
CCn1c(=S)sc2c1ncn1nc(-c3ccco3)nc21	8.45	10.02	0.028						
S=c1sc2c(ncn3nc(-c4ccco4)nc23)n1-c1ccc(Cl)cc1	9.82	10.52	0.197						
CCCCn1c(=S)sc2c1ncn1nc(-c3ccco3)nc21	9.92	6.83	1290	Active	Active	Active	Active	Active	Active
CCCn1c(=S)sc2c1ncn1nc(-c3ccco3)nc21	9.42	6.64	636	Active	Active	Active	Active	Active	Active

Now from value to compound, other results behind:

pKi [1]	pKi [2]	Ratio Ki [3]	Structure (SMILES)	inhibition [4]	inhibition [5]	inhibition [6]	inhibition [7]	inhibition [8]	inhibition [9]
8.96	7.32	46.6	S=c1sc2c(ncn3nc(-c4ccco4)nc23)n1-c1ccccc1						
9.24	8.21	10.8	S=c1sc2c(ncn3nc(-c4ccco4)nc23)n1-c1ccc(I)cc1						
11.09	8.58	320	S=c1sc2c(ncn3nc(-c4ccco4)nc23)n1-c1cccc(I)c1						
10.42	9.72	5	S=c1sc2c(ncn3nc(-c4ccco4)nc23)n1-c1cccc(Cl)c1						
9.15	9.40	0.571	S=c1sc2c(ncn3nc(-c4ccco4)nc23)n1-c1ccccc1I						
8.69	8.49	1.59	Fc1ccc(-n2c(=S)sc3c2ncn2nc(-c4ccco4)nc32)cc1						
